Results: US20200163995A1, “PHAR[…] AND USES THEREOF” (Johnpro Biotech Inc., priority 2017, published 2020)
Read-outs that look alike come from different tables or passages of the source.

Legend:
HCT116 cells [1] = experiment: 5-fluorouracil IC50 in HCT116 cells alone or co-treated with sodium butyrate or 5-azacytidine; format: cell-based, Human; conditions: for induction of drug resistance (5-fluorouracil) in cancer cells: HCT116 and WiDr cells, co-treatment with 5-fluorouracil 72 hours, sodium butyrate 0.1 mM, 5-azacytidine 1 μM
Description: (§1) Human colon cancer cell line LS174T (ATCC® CL-188™) and WiDr cells (ATCC CCL-218™) were maintained in alpha modification of Eagle's minimum essential medium (α-MEM) containing 1.5 g/L sodium bicarbonate and 10% fetal bovine serum (FBS). HCT116 cells (ATCC® CCL-247™) were cultured in McCoy's 5A medium containing 1.5 g/L sodium bicarbonate, 4.5 g/L glucose, 10 mM HEPES, 1.0 mM sodium pyruvate and 10% FBS. The NK92MI and NK92MI-CEA cells were cultured in α-MEM supplemented with 1.5 g/L sodium bicarbonate, 0.2 mM inositol, 0.02 mM folic acid, 0.01 mM 2-mercaptoethanol, 10% FBS and 12.5% horse serum. All cells were incubated at 37° C. in a humidified incubator with 5% CO2.
(§2) HCT116 and WiDr cells were co-treated with sodium butyrate (0.1 mM) or 5-azacytidine (1 μM) and different concentration of 5-fluorouracil (1.2, 2.4, 4.8, 9.6, and 19.2 μM) for 72 hours.

[2] = test system: CEA expression on cancer cells; experiment: Determination of CEA expression on cancer cells by flow cytometry after drug treatment; format: cell-based, Human; conditions: data not shown
Description: The expression level of CEA on cancer cells were determined by flow cytometry. Cancer cells were stained with the human CEA-specific antibody followed by the analysis of flow cytometry. The fluorescence intensities of at least 10^5 cells were recorded and analyzed by software. Geometric mean was chosen as mean fluorescence intensity (MFI).
(§3) In this example, cancer cells were first treated with various types of anti-cancer drugs, before been subject to the treatment of NK92MI-CEA cells.

HCT116 cells [3] = test system: HCT116 cells
Description: In this experiment, the cancer cells (i.e., HCT116 or WiDr cells) and the NK cells (i.e., NK92MI or NK92MI-CEA cells) respectively served as the target and effector cells. In brief, the target cells were co-incubated with the effector cells at various effector/target ratios (E/T), including 10:1, 5:1, 1:1, and 0.5:1, in a round-bottom 96-well culture plate. After incubating at 37° C. for 24 hours, 50 μl of the supernatant was isolated and mixed with 50 μl of CYTOTOX 96® Reagent in a flat-bottom 96-well enzymatic assay plate. The mixture was incubated at room temperature for 30 minutes followed by adding 50 μl stop solution (H2SO4) to stop the reaction. The absorbance was measured at 490 nm. The percentage of cytotoxicity for each effector:target cell ratio was calculated by the equation of,
(Experimental−culture medium background)−(Effector cell spontaneous release−culture medium background)−(Target spontaneous release−culture medium background)/(Target maximum release−volume correction control−Target spontaneous release−culture medium background)×100.

cancer cells = experiment: Resistance of drug-treated cancer cells to chemotherapy and radiation therapy (data not shown); format: cell-based
Source text: as §3

WiDr cells [4] = experiment: 5-fluorouracil IC50 in WiDr cells alone or co-treated with sodium butyrate or 5-azacytidine; format: cell-based; conditions: Homo sapiens, 72 hours, co-treatment sodium butyrate 0.1 mM or 5-azacytidine 1 μM, three independent experiments, read-out: IC50 of 5-fluorouracil (μM) Mean ± SD
Description: as §1, §2

WiDr cells [5] = experiment: WiDr xenograft in SCID mice, tumor volume; format: in vivo; conditions: SCID mice with WiDr tumors
Description: 2×10^6 WiDr cells were subcutaneously implanted on the back of 9-weeks-old SCID mice. When tumors reached a volume of 100-200 mm^3, the mice were intraperitoneally administered with 200 mg/kg sodium butyrate for 5 consecutive days. Then, the mice were assigned into five groups: (1) control group, in which the mice were orally administrated with PBS every day, and intraperitoneally administrated with PBS every 4 days; (2) NaB group, in which the mice were orally administrated with 5 g/kg sodium butyrate every day, and intraperitoneally administrated with PBS every 4 days; (3) NK92MI group, in which the mice were orally administrated with PBS every day, and intraperitoneally administrated with NK92MI cells every 4 days; (4) NK92MI-CEA group, in which the mice were orally administrated with PBS every day, and intraperitoneally administration with NK92MI-CEA cells every 4 days; and (5) NK92MI-CEA+NaB group, in which the mice were orally administration with 5 g/kg sodium butyrate every day, and intraperitoneally administration with NK92MI-CEA every 4 days. Tumor volume of the mice was measured every 2-3 days, and tumor volumes on were calculated using the formula: length×(width)^2÷2 (*p<0.05). […]
The in vivo anti-tumor activity of NK92MI-CEA cells was evaluated in this example. […]

[6] = test system: serum circulating CEA (cCEA); experiment: Serum circulating CEA (ELISA) in WiDr tumor-bearing SCID mice; format: in vivo; conditions: FIG. 4C, control group 520 pg/ml

Row | Compound | induction of drug resistance (5-fluorouracil) in cancer cells (HCT116 cells [1]) | CEA expression on cancer cells [2] | enhancement of cytotoxic effect of NK92MI-CEA cells (HCT116 cells [3]) | resistance of cancer cells to chemotherapy and radiation therapy (cancer cells) | IC50 (HCT116 cells [1]; Homo sapiens, HCT-116, HCT116 cells, 72 hours, co-treatment sodium butyrate 0.1 mM or 5-azacytidine 1 μM, three independent experiments, read-out: IC50 of 5-fluorouracil (μM) Mean ± SD) [µM] | IC50 (WiDr cells [4]) [µM] | tumor growth (FIG. 4A) (WiDr cells [5]; NK cells i.p. every 4 days, sodium butyrate 5 g/kg orally every day) | tumour growth / tumour size (FIG. 4B) (WiDr cells [5]; compared to control group) | enhancement of cytotoxic effect of NK92MI-CEA cells (HCT116 cells [3]; HCT116 cells treated with agent, E/T ratio 10:1, 5:1, 1:1 or 0.5:1, versus control and untreated groups, FIGS. 3A, 3B) | concentration of cCEA in the serum of mice [6] [pg/mL]
1 | Nc1ncn([C@@H]2O[C@H](CO)[C@@H](O)[C@H]2O)c(=O)n1 [5-azacytidine] | induced drug resistance in cancer cells | significantly increased CEA expression | significantly enhanced cytotoxic effect | rendered the cancer cells resistant to the chemotherapy and radiation therapy | – | – | – | – | – | –
2 | O=c1[nH]cc(F)c(=O)[nH]1 [5-fluorouracil] | – | – | – | – | 4.39 ± 3.1 | 4.67 ± 0.55 | – | – | – | –
3 | CCCC(=O)[O-].[Na+] [sodium butyrate] | induced drug resistance in cancer cells | significantly increased CEA expression | – | rendered the cancer cells resistant to the chemotherapy and radiation therapy | – | – | obviously enhanced the anti-tumor effect of NK92MI-CEA cells | did not obviously inhibit tumour growth | significantly enhanced cytotoxic effect | 990
